Assay results as given in ChEMBL document CHEMBL1144583, “Specificities of acetoxy derivatives of coumarins, biscoumarins, chromones, flavones, isoflavones and xanthones for acetoxy drug: protein transacetylase” (2007).

Columns and labels:
Rattus norvegicus [1] = organism: Rattus norvegicus; assay: Effect on TAase activity assessed as activation of liver microsomal NADPH cytochrome P450 at 5 uM
Rattus norvegicus [2] = organism: Rattus norvegicus; assay: Effect on TAase activity assessed as inhibition of GST in liver microsome at 50 uM; format: microsomes
Rattus norvegicus [3] = organism: Rattus norvegicus; assay: Inhibition of liver microsomal EROD at 25 uM
Bone marrow cell = assay: Inhibition of micronuclei formation in benzene-induced in Wistar Albino rat bone marrow cells at 300 mg/ kg, ip after 1 hr; format: functional; conditions: route intraperitoneal

Compound `CC(=O)Oc1ccc(OC(C)=O)c2c(=O)c3ccccc3oc12` has an Activity (Rattus norvegicus [1]) of 21.7%, an inhibition (Rattus norvegicus [2]) of 12.7% and an inhibition (Rattus norvegicus [3]) of 41.9%.
With `CC(=O)Oc1ccc2c(C(C/C=C/C#CC(C)(C)C)S(=O)(=O)c3ccccc3)cc(=O)oc2c1` (stereo unspecified) the Activity (Rattus norvegicus [1]) was 7.6% and the inhibition (Rattus norvegicus [2]) was 4.01%.
`CC(=O)Oc1cc(OC(C)=O)c2c(=O)c(C(C)=O)c(C)oc2c1` gave an Activity (Rattus norvegicus [1]) of 16.7% and an inhibition (Rattus norvegicus [2]) of 6.68%.
Work on `CCCCCCC(c1cc(=O)oc2cc(OC(C)=O)ccc12)S(=O)(=O)c1ccccc1` (stereo unspecified) yielded an Activity (Rattus norvegicus [1]) of 7.17% and an inhibition (Rattus norvegicus [2]) of 3.96%.
Work on `CC(=O)Oc1ccc2c(=O)cc(-c3ccccc3)oc2c1` yielded an Activity (Rattus norvegicus [1]) of 6.9%, an inhibition (Rattus norvegicus [2]) of 3.6% and an inhibition (Rattus norvegicus [3]) of 16.4%.
Compound `CC(=O)Oc1ccc2c(OC(C)=O)c(Cc3c(OC(C)=O)c4ccc(OC(C)=O)c(OC(C)=O)c4oc3=O)c(=O)oc2c1OC(C)=O` has an Activity (Rattus norvegicus [1]) of 17.2%, an inhibition (Rattus norvegicus [2]) of 10.1% and an inhibition in vivo at 300 mg/kg (Bone marrow cell) of 37.9%. It also gave an inhibition (Rattus norvegicus [3]) of 39.3%.
`CC(=O)Oc1ccc2c(C(C/C=C/C#CC(C)(C)C)S(=O)(=O)c3ccccc3)cc(=O)oc2c1OC(C)=O` (stereo unspecified) showed an Activity (Rattus norvegicus [1]) of 15.9% and an inhibition (Rattus norvegicus [2]) of 10.4%.
For `CC(=O)Oc1ccc2c(C)cc(=O)oc2c1`, the Activity (Rattus norvegicus [1]) was 14.5%, the inhibition (Rattus norvegicus [2]) was 7.1% and the inhibition in vivo at 300 mg/kg (Bone marrow cell) was 44.6%. It also gave an inhibition (Rattus norvegicus [3]) of 30.8%.
With `CC(=O)Oc1ccc2c(=O)c(-c3ccccc3)c(C)oc2c1` the Activity (Rattus norvegicus [1]) was 7.1%, the inhibition (Rattus norvegicus [2]) was 3.1% and the inhibition (Rattus norvegicus [3]) was 16.1%.
Compound `CC(=O)Oc1ccc2c(=O)c(-c3ccccc3)coc2c1OC(C)=O` has an Activity (Rattus norvegicus [1]) of 14.5%, an inhibition (Rattus norvegicus [2]) of 6.89% and an inhibition (Rattus norvegicus [3]) of 32.4%.
Compound `CC(=O)Oc1ccc2c(c1)OC(=O)CC2c1ccccc1` (stereo unspecified) has an Activity (Rattus norvegicus [1]) of 6.77% and an inhibition (Rattus norvegicus [2]) of 3.31%.
`CC(=O)Oc1ccc2c(=O)c(C(C)=O)c(C)oc2c1` gave an Activity (Rattus norvegicus [1]) of 15.1%, an inhibition (Rattus norvegicus [2]) of 6.03% and an inhibition (Rattus norvegicus [3]) of 31.5%.
`CC(=O)Oc1ccc2c(=O)c(C(C)=O)c(C)oc2c1OC(C)=O` was tested, and the Activity (Rattus norvegicus [1]) was 27.6% and the inhibition (Rattus norvegicus [2]) was 15.3%.
For `CC(=O)Oc1cccc2oc3ccccc3c(=O)c12`, the Activity (Rattus norvegicus [1]) was 5.06% and the inhibition (Rattus norvegicus [2]) was 3.43%.
In the case of `CC(=O)Oc1ccc2c(C)cc(=O)oc2c1OC(C)=O`, the Activity (Rattus norvegicus [1]) is reported as 25.8%, the inhibition (Rattus norvegicus [2]) is reported as 15.2% and the inhibition in vivo at 300 mg/kg (Bone marrow cell) is reported as 65%. For the same compound, the inhibition (Rattus norvegicus [3]) was 58.4%.
In the case of `CC(=O)Oc1cc2c(=O)oc3c(OC(C)=O)c(OC(C)=O)cc4c(=O)oc(c1OC(C)=O)c2c34` [ELLAGIC ACID TETRAACETATE], the Activity (Rattus norvegicus [1]) is reported as 16.1%, the inhibition (Rattus norvegicus [2]) is reported as 10.1% and the inhibition in vivo at 300 mg/kg (Bone marrow cell) is reported as 39.6%.
With `CC(=O)Oc1cc(C(C)=O)c2c(C)cc(=O)oc2c1` the Activity (Rattus norvegicus [1]) was 15.6% and the inhibition (Rattus norvegicus [2]) was 7.65%.
